Test results as given in ChEMBL document CHEMBL1201862, “PubChem BioAssay data set” (2004).
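How tested: cells in 96-well plates exposed to compound for 48 hours at five concentrations. GI50 marks 50% less growth.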 The source made the active and inactive calls. Rule as the data show it: active = GI50 up to about 1.1 µM and inactive = higher.

Legend:
Assay in all cases: growth of human tumour cells (NCI), 48 h
A549 = system: A549
ACHN = system: ACHN
COLO 205 = system: COLO 205
HCC 2998 = system: HCC 2998
HOP-62 = system: HOP-62
HT-29 = system: HT-29
IGROV-1 = system: IGROV-1
K562 = system: K562
KM12 = system: KM12
MDA-N = system: MDA-N
OVCAR-3 = system: OVCAR-3
OVCAR-5 = system: OVCAR-5
RXF 393 = system: RXF 393
SF-268 = system: SF-268
SF-539 = system: SF-539
SW-620 = system: SW-620
TK-10 = system: TK-10
UACC-257 = system: UACC-257

Measured: GI50

Cc1cc(Cc2c(F)c(F)c(C(c3cc(C)no3)c3c(F)c(F)c(F)c(F)c3F)c(F)c2F)on1 (centres undefined)
inactive: A549 > 100 µM | ACHN > 100 µM | COLO 205 > 100 µM | HCC 2998 > 27.9 µM | HOP-62 > 100 µM | HT-29 6.08 µM | IGROV-1 > 100 µM | K562 9.46 µM | KM12 19.5 µM | MDA-N 3.04 µM | OVCAR-3 > 27.4 µM | OVCAR-5 > 100 µM | RXF 393 2.34 µM | SF-268 78.3 µM | SF-539 17.9 µM | SW-620 8.02 µM | TK-10 > 100 µM | UACC-257 5.32 µM

CC[C@@H](/C=C\CCC(=O)C[C@H](O)CCC=C(C)C)O[Si](C(C)C)(C(C)C)C(C)C
inactive: A549 73.3 µM | ACHN > 100 µM | COLO 205 71.6 µM | HCC 2998 > 100 µM | HOP-62 > 100 µM | HT-29 52.6 µM | IGROV-1 > 100 µM | K562 54.5 µM | KM12 > 100 µM | MDA-N 88.9 µM | OVCAR-3 > 100 µM | OVCAR-5 > 100 µM | RXF 393 83.9 µM | SF-268 > 100 µM | SF-539 > 100 µM | SW-620 > 100 µM | TK-10 > 100 µM | UACC-257 85.1 µM

Nc1ncnc2c1ccn2C/C=C/CO
inactive: A549 > 100 µM | ACHN > 100 µM | COLO 205 > 100 µM | HCC 2998 > 100 µM | HOP-62 > 100 µM | HT-29 > 100 µM | IGROV-1 > 100 µM | K562 > 100 µM | KM12 > 100 µM | MDA-N > 100 µM | OVCAR-3 > 100 µM | OVCAR-5 > 100 µM | RXF 393 > 100 µM | SF-268 > 100 µM | SF-539 > 100 µM | SW-620 > 100 µM | TK-10 > 100 µM | UACC-257 > 100 µM

CCOC(=O)CCC(NC(=O)c1ccc(OCc2ccc3nc(OC)c(OC)nc3c2)cc1)C(=O)OCC (centres undefined)
inactive: A549 > 100 µM | ACHN 32.9 µM | COLO 205 16.7 µM | HCC 2998 50.1 µM | HOP-62 > 100 µM | HT-29 > 100 µM | IGROV-1 55.8 µM | K562 22.3 µM | KM12 > 100 µM | MDA-N 24 µM | OVCAR-3 20.2 µM | OVCAR-5 > 100 µM | RXF 393 25.9 µM | SF-268 57.7 µM | SF-539 57.3 µM | SW-620 > 100 µM | TK-10 35.2 µM | UACC-257 29.1 µM

CC(C)C(OC(=O)c1ccc(NCC2=CC(=O)C=CC2=O)cc1)C(C)C
inactive: A549 25.2 µM | ACHN 9.1 µM | COLO 205 2.79 µM | HCC 2998 13.6 µM | HOP-62 18.3 µM | HT-29 10.7 µM | IGROV-1 1.81 µM | K562 3.66 µM | KM12 11.5 µM | MDA-N 5.2 µM | OVCAR-3 4.12 µM | OVCAR-5 13.3 µM | RXF 393 1.82 µM | SF-268 12.1 µM | SF-539 1.99 µM | SW-620 6.76 µM | TK-10 4.25 µM | UACC-257 7.76 µM

Cc1cn([C@@H]2O[C@H](CO)[C@@H](O)[C@@H]2O)c(=O)[nH]c1=O
inactive: A549 > 1000 µM | ACHN > 1000 µM | COLO 205 > 1000 µM | HCC 2998 > 1000 µM | HOP-62 > 1000 µM | HT-29 > 1000 µM | IGROV-1 > 1000 µM | K562 > 1000 µM | KM12 > 1000 µM | MDA-N > 1000 µM | OVCAR-3 > 1000 µM | OVCAR-5 > 1000 µM | RXF 393 > 1000 µM | SF-268 > 1000 µM | SF-539 > 1000 µM | SW-620 > 1000 µM | TK-10 > 1000 µM | UACC-257 > 1000 µM

CN1C(=O)[C@H](c2c[nH]c3ccccc23)[C@H](c2c[nH]c3ccccc23)C1=O
inactive: A549 32.9 µM | ACHN 23.8 µM | COLO 205 1.33 µM | HCC 2998 > 52.5 µM | HOP-62 27.7 µM | HT-29 34.7 µM | IGROV-1 6.97 µM | K562 28.9 µM | KM12 36.1 µM | MDA-N 38.1 µM | OVCAR-3 19.5 µM | OVCAR-5 > 41.6 µM | RXF 393 26.7 µM | SF-268 33.3 µM | SF-539 21.7 µM | SW-620 37.1 µM | TK-10 22 µM | UACC-257 29.5 µM

COc1ccc(OCC(=N/NC(=O)c2ccncc2)/N=C/c2cccnc2)cc1
inactive: A549 92.9 µM | ACHN 72.8 µM | COLO 205 64.6 µM | HCC 2998 83.9 µM | HOP-62 72.1 µM | HT-29 > 100 µM | IGROV-1 > 100 µM | K562 44.7 µM | KM12 50.9 µM | MDA-N 17 µM | OVCAR-3 65.8 µM | OVCAR-5 > 100 µM | RXF 393 35.8 µM | SF-268 > 100 µM | SF-539 64.3 µM | SW-620 53.1 µM | TK-10 > 100 µM | UACC-257 > 100 µM
